Consider eight molecules from patent US10092547B2, “Substituted aliphanes, cyclophanes, heteraphanes, heterophanes, hetero- heteraphanes and metallocenes useful for treating HCV infections” (priority 2011, dated 2018).

Assay [1] has as its system HCV replicon (NS5A1b) in Huh-7 cells. As to the kind of experiment: microbe, parasite or virus in culture. The assay is classed as cell-based. The following applies: Hepatitis C virus; for EC50: 72 h, NS5A1b, HCV replicon-containing Huh-7 cells, three days, read-out: EC50 (μM) NS5A1b. As to the method: (§1) Compounds claimed herein are tested for the ability to inhibit viral replication of the Hepatitis C replicon in cultured cells in which the HCV replicon construct has been incorporated. The HCV replicon system was described by Bartenschlager, et. al (Science, 285, pp. 110-113 (1999)). The replicon system is predictive of in vivo anti-HCV activity; compounds that are active in humans uniformly evidence activity in the replicon assay.
(§2) In this assay HCV replicon containing cells are treated with different concentrations of the test compound to ascertain the ability of the test compound to suppress replication of the HCV replicon. As a positive control, HCV replicon-containing cells are treated with different concentrations of interferon alpha, a known inhibitor of HCV replication. The replicon assay system includes Neomycin Phosphotransferase (NPT) as a component of the replicon itself in order to detect the transcription of replicon gene products in the host cell. Cells in which the HCV replicon is actively replicating have high levels of NPT; the level of NPT is proportional to HCV replication. […] The NPT level of each sample is measured using a captured ELISA.
(§3) A protocol for testing compounds for the ability to inhibit viral replication of the Hepatitis C replicon cultured cells in which the replicon construct has been incorporated, follows.
(§4) The HCV replicon contains, 5′-3′, the HCV-IRES, the neomycin phosphotransferase (neo) gene, the IRES of encephalomyocarditis virus, which directs translation of HCV sequences NS3 to NS5B, and the 3′-NTR. The sequence of the HCV replicon has been deposited in GenBank (Accession no. AJ242652).
(§5) The replicon is transfected into Huh-7 cells using standard methods such as electroporation.
(§6) The equipment and materials include, but are not limited to, Huh-7 HCV replicon-containing cells, maintenance media (DMEM (Dulbecco's modified Eagle media) supplemented with 10% FBS, L-glutamine, non-essential amino acids, penicillin (100 units/ml), streptomycin (100 micrograms/ml), and 500 micrograms/ml of Geneticin (G418), screening media (DMEM supplemented with 10% FBS, L-glutamine, non-essential amino acids, penicillin (100 units/ml) and streptomycin (100 micrograms/ml), 96 well tissue culture plates (flat bottom), 96 well plates (U bottom for drug dilution), Interferon alpha for positive control, fixation reagent (such as methanol: acetone), primary antibody (rabbit anti-NPTII), secondary antibody: Eu-N1 1, and enhancement solution.
(§7) HCV replicon-containing cells support high levels of viral RNA replicon replication when their density is suitable. Over-confluency causes decreased viral RNA replication. Therefore, cells must be kept growing in log phase in the presence of 500 micrograms/ml of G418. Generally, cells should be passed twice a week at 1:4-6 dilution. Cell maintenance is conducted as follows:
(§8) HCV replicon-containing cells are examined under a microscope to ensure that cells growing well. Cells are rinsed once with PBS and 2 ml trypsin is added. The cell/trypsin mixture is incubated at 37° C. in a CO2 incubator for 3-5 minutes. After incubation 10 ml of complete media is added to stop the trypsinization reaction. Cells are blown gently, put into a 15 ml tube, and spun at 1200 rpm for 4 minutes. The trypsin/medium solution is removed. Medium (5 ml) is added and the cells are mixed carefully. The cells are counted.
(§9) The cells are then seeded onto 96-well plates at a density of 6000-7500 cells/100 microliters/well (6-7.5×10^5 cells/10 ml/plate). The plates are then incubated at 37° C. in a 5% CO2 incubator.
(§10) Cells are examined under a microscope approximated 24 hours after seeding and prior to adding drugs. If counting and dilution were performed correctly, cells are 60-70% confluent and nearly all cells should attach and spread evenly in the well.
(§11) HCV replicon-containing cells are rinsed with once PBS once; 2 mls of trypsin are then added. Cells are incubated at 37° C. in a 5% CO2 incubator for 3-5 minutes. […]
In general terms: In antiviral work, replicon cells carry a viral genome segment that copies itself.

Another assay relates to HCV replicon (NS5A1b). Nature of the assay: microbe, parasite or virus in culture. The assay is classed as cell-based. To be noted: Hepatitis C virus, 72 h, HCV replicon-containing cells, three days. How it is done: as §1, §2, §3, §4, §5, §6, §7, §8, §9, §10, §11

pEC50: −log10 of the molar value. Where two headings read alike, the source gives them in different places.

For the molecule `COC(=O)N[C@H](C(=O)N1C2CCC(C2)[C@H]1c1nc2cc(-c3cc4ccc3CCc3ccc(c(-c5ccc6[nH]c([C@@H]7C8CCC(C8)N7C(=O)[C@@H](NC(=O)OC)C(C)C)nc6c5)c3)CC4)ccc2[nH]1)C(C)C` [Compound 42], the EC50 in assay [1] is below 0.0032 µM; with HCV replicon (NS5A1b), 0.0044 µM. `CC[C@H](C)[C@H](NC(=O)OC)C(=O)N1[C@H](c2nc3cc(-c4cc5ccc4CCc4ccc(c(-c6ccc7[nH]c([C@@H]8C[C@@H]9CCCC[C@@H]9N8C(=O)[C@@H](NC(=O)OC)[C@@H](C)CC)nc7c6)c4)CC5)ccc3[nH]2)C[C@@H]2CCCC[C@@H]21` [Compound 102]: the results for the EC50 (in assay [1]; in the assay on HCV replicon (NS5A1b)) were 0.0119 µM and 0.0358 µM, respectively.

Turning to `COC(=O)N[C@H](C(=O)N1CCC[C@H]1c1nc2cc(-c3cc4ccc3CCc3ccc(c(-c5ccc6[nH]c([C@@H]7CCCN7C(=O)[C@@H](NC(=O)OC)[C@@H](C)OC)nc6c5)c3)CC4)ccc2[nH]1)[C@@H](C)OC` [Compound 109], the results for the EC50 (in assay [1]; in the assay with HCV replicon (NS5A1b)) were 0.00883 µM and 0.0118 µM, respectively. Consider `COC(=O)N[C@H](C(=O)N1C[C@H](F)C[C@H]1c1nc2cc(-c3cc4ccc3CCc3ccc(c(-c5ccc6[nH]c([C@@H]7C[C@@H](F)CN7C(=O)[C@@H](NC(=O)OC)C(C)C)nc6c5)c3)CC4)ccc2[nH]1)C(C)C` [Compound 87], for which the figures for the EC50 (in assay [1]; in the assay on HCV replicon (NS5A1b)) were 0.00653 µM and 0.0184 µM, respectively. Regarding `COC(=O)N[C@@H](CCSC)C(=O)N1C[C@H](F)C[C@H]1c1nc2cc(-c3cc4ccc3CCc3ccc(c(-c5ccc6[nH]c([C@@H]7C[C@@H](F)CN7C(=O)[C@H](CCSC)NC(=O)OC)nc6c5)c3)CC4)ccc2[nH]1` [Compound 88], the EC50 is 0.00643 µM in assay [1] and 0.0618 µM with HCV replicon (NS5A1b). For `CC[C@H](C)[C@H](NC(=O)OC)C(=O)N1CCC[C@H]1c1nc2cc(-c3cc4ccc3CCc3ccc(c(-c5ccc6[nH]c([C@@H]7CCCN7C(=O)[C@@H](NC(=O)OC)[C@@H](C)CC)nc6c5)c3)CC4)ccc2[nH]1` [Compound 103], the EC50 in assay [1] is below 0.00317 µM; in the assay on HCV replicon (NS5A1b), 0.47 µM. Regarding `COC(=O)N[C@@H](CCSC)C(=O)N1CCC[C@H]1c1nc2cc(-c3cc4ccc3CCc3ccc(c(-c5ccc6[nH]c([C@@H]7CCCN7C(=O)[C@H](CCSC)NC(=O)OC)nc6c5)c3)CC4)ccc2[nH]1` [Compound 50], the EC50 in assay [1] turned out to be 0.00841 µM.

As to `CC(C)(C)OC(=O)N1[C@H](c2nc3ccc(B4OC(C)(C)C(C)(C)O4)cc3[nH]2)C[C@@H]2CCCC[C@@H]21` [Compound 16, (2S,3aS,7aS)-tert-butyl 2-(6-(4,4,5,5-tetramethyl-1,3,2-dioxaborolan-2-yl)-1H-benzo[d]imidazol-2-yl)octahydro-1H-indole-1-carboxylate], the pEC50 in assay [1] (Huh-7, Example 9 replicon assay, read-out: EC50 values in HCV replicon assay) is at least 5.00.

For orientation: EC50 means the concentration giving half of the maximal effect. What is called pEC50 is −log10 of the EC50, conventionally taken in molar units.
